Laboratory results from patent US10124004B2, “Pyrido[3,4-d]pyrimidine derivative and pharmaceutically acceptable salt thereof” (Teijin Pharma Limited, priority 2015, dated 2018).
Read-outs that look alike come from different tables or passages of the source.

Columns and labels:
[1] = biological target: T1, CDK2/cyclin A2 (Homo sapiens, UniProt P24941); experiment: Human CDK2/cyclin A2 inhibitory activity (QS S Assist CDK2/Cyclin A2_FP Kit, IMAP fluorescence polarization); assay type: biochemical
T1 construct: purchased Carna Biosciences, Inc. QS S Assist CDK2/Cyclin A2_FP Kit
How it was run: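 Kinase activity read as fluorescence polarization (485/535 nm) after phosphorylated fluorescent substrate binds IMAP reagent (30 min, RT, dark). Enzyme (2.5 ng/well) reacted 60 min at RT with ATP/substrate/metal in HEPES pH 7.4 buffer with Tween 20 and DTT; no-enzyme wells define 0% activity; IC50 by curve fit.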

[2] = biological target: T2, CDK4/cyclin D3 (Homo sapiens, UniProt P11802); experiment: Human CDK4/cyclin D3 inhibitory activity (QS S Assist CDK4/Cyclin D3_FP Kit, IMAP fluorescence polarization); assay type: biochemical
T2 construct: purchased Carna Biosciences, Inc. QS S Assist CDK4/Cyclin D3_FP Kit
T2 sequence (P11802 whole entry): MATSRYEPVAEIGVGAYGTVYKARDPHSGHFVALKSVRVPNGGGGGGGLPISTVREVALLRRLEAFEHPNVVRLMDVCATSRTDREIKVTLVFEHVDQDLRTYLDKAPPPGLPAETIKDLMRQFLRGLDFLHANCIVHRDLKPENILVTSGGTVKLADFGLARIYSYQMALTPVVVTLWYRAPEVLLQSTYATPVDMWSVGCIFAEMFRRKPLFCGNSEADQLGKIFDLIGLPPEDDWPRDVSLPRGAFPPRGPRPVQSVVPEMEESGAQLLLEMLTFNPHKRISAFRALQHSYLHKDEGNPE
T2 sequence (P30281 whole entry partner): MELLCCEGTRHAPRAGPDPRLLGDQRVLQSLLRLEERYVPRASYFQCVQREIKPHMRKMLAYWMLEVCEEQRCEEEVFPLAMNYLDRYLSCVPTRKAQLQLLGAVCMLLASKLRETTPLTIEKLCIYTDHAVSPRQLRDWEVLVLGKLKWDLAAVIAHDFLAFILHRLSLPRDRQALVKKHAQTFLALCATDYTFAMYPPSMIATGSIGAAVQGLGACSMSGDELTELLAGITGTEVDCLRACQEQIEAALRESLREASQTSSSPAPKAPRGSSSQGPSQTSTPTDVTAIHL
How it was run: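 Percent inhibition, relative to DMSO with and without enzyme, was curve-fitted to give IC50 from polarization (ex 485, em 535 nm). The 45-min room-temperature reaction used 12.5-25 ng/well enzyme, kit ATP/substrate/metal mix, and HEPES pH 7.4 buffer with Tween20 and DTT, followed by 30-min IMAP binding in the dark.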

[3] = Human CDK2/cyclin A2 inhibitory activity, read-out: CDK2 Activity symbol
[4] = Human CDK4/cyclin D3 inhibitory activity, read-out: CDK4 Activity symbol
[5] = 50% inhibitory concentration against CDK2/cyclin A2, given as class symbol
[6] = 50% inhibitory concentration against CDK4/cyclin D3, given as class symbol

SMILES	IC50 [1, 3] [nM]	IC50 [2, 4] [nM]	IC50 [1, 5] [nM]	IC50 [2, 6] [nM]
CC(C)Nc1nc([C@@H](C)O)cc2cnc(Nc3ccc(N4CCN(CCO)CC4)nn3)nc12 [Compound 510]	≥ 100	< 10	–	–
CC(C)Nc1nc(C(C)O)cc2cnc(Nc3ccc(N4CCC(O)C4)cn3)nc12 (centres unmarked) [Compound 77]	≥ 100	< 10	–	–
COCC(C)(C)Nc1nc([C@@H](C)O)cc2cnc(Nc3ccc(N4CCNCC4=O)cn3)nc12 [Compound 206]	≥ 100	< 10	–	–
CNC(=O)CN1CCN(c2ccc(Nc3ncc4cc([C@@H](C)O)nc(NC(C)C)c4n3)nc2)C(=O)C1 [Compound 961]	–	–	≥ 100	< 10
CC(C)Nc1nc(C(F)F)cc2cnc(Nc3ccc(OCC(C)(C)CO)cn3)nc12 [Compound 122]	≥ 100	10 to 100	–	–
CC(C)Nc1nc(C(F)F)cc2cnc(Nc3ccc(N4CCOCC4)cn3)nc12 [Compound 43]	10 to 100	< 10	–	–
CC(C)Nc1nc(C(F)F)cc2cnc(Nc3ccc(CN4CCCC4C(=O)O)cn3)nc12 (centres unmarked) [Compound 189]	10 to 100	< 10	–	–
CC(C)Nc1nc(C(F)F)cc2cnc(Nc3ccc(CN4CCC(C(N)=O)CC4)cn3)nc12 [Compound 125]	10 to 100	< 10	–	–
CC(C)Nc1nc(C(F)F)cc2cnc(Nc3ccc(N4CCNCC4)cn3)nc12 [Compound 46]	10 to 100	< 10	–	–
CNCC(C)(C)c1ccc(Nc2ncc3cc([C@@H](C)O)nc(NC(C)(C)COC)c3n2)nc1 [Compound 264]	≥ 100	< 10	–	–
CCCNc1nc(C2CCOC2)cc2cnc(Nc3ccc(CN4CCNCC4)cn3)nc12 (centres unmarked) [Compound 1005]	–	–	≥ 100	< 10
CO[C@H](C)c1cc2cnc(Nc3ccc(N4CCN(CC#N)CC4)nn3)nc2c(NC(C)C)n1 [Compound 906]	–	–	≥ 100	10 to 100
OCCN1CCc2nc(Nc3ncc4cc(C5CCOC5)nc(N[C@H]5CCCOC5)c4n3)ccc2C1 (some centres unmarked) [Compound 1122]	–	–	≥ 100	< 10
CCNc1nc([C@@H](C)O)cc2cnc(Nc3ccc(CN4CCN(C(C)CO)CC4)cn3)nc12 (single isomer, unassigned) [Compound 1088]	–	–	≥ 100	< 10
C[C@@H](O)c1cc2cnc(Nc3ccc(CN4CCC(O)CC4)cn3)nc2c(NC2CCC2)n1 [Compound 1063]	–	–	≥ 100	< 10
CNCCCOc1ccc(Nc2ncc3cc([C@@H](C)OC)nc(NC(C)C)c3n2)nc1 [Compound 526]	≥ 100	< 10	–	–
C[C@@H](O)c1cc2cnc(Nc3ccc(OC[C@@H]4CCCN4)cn3)nc2c(N[C@H]2CCCOC2)n1 [Compound 782]	–	–	≥ 100	< 10
CNC(=O)CN1CCN(c2ccc(Nc3ncc4cc([C@@H](C)O)nc(NC(C)C)c4n3)nn2)CC1 [Compound 960]	–	–	≥ 100	< 10
CNC(=O)C1CCN(Cc2ccc(Nc3ncc4cc([C@@H](C)O)nc(NC(C)(C)COC)c4n3)nc2)CC1 [Compound 297]	≥ 100	< 10	–	–
CCN1CCN(Cc2ccc(Nc3ncc4cc([C@@H](C)OC)nc(NC(C)C)c4n3)nc2)CC1 [Compound 240]	≥ 100	< 10	–	–
Cc1nc(Nc2ncc3c(Cl)c([C@@H](C)O)nc(NC(C)C)c3n2)ccc1N1CCNCC1=O [Compound 815]	–	–	≥ 100	< 10
CC(O)c1cc2cnc(Nc3ccc(N4CCNCC4)cn3)nc2c(Nc2cn[nH]c2)n1 (centres unmarked) [Compound 32]	≥ 100	< 10	–	–
C[C@@H](O)c1cc2cnc(Nc3ccc(CN4CCN(CCO)CC4)cn3)nc2c(NC(C)(C)C)n1 [Compound 1071]	–	–	≥ 100	< 10

SMILES	IC50 [1, 3] [nM]	IC50 [2, 4] [nM]	IC50 [1, 5] [nM]	IC50 [2, 6] [nM]
CCC(O)c1cc2cnc(Nc3ccc(N4CCNCC4)cn3)nc2c(NC(C)C)n1 (centres unmarked) [Compound 1035]	–	–	≥ 100	< 10
COCc1cc2cnc(Nc3ccc(N4CCNCC4)cn3)nc2c(NC(C)C)n1 [Compound 44]	≥ 100	< 10	–	–
CO[C@H](C)c1cc2cnc(Nc3ccc(CN4CCN(C(=O)CO)CC4)cn3)nc2c(NC(C)C)n1 [Compound 988]	–	–	≥ 100	< 10
CC(C)Nc1nc(C2CC(F)(F)C2)cc2cnc(Nc3ccc(N4CCNCC4=O)cn3)nc12 [Compound 1042]	–	–	≥ 100	10 to 100
CO[C@H](C)c1cc2cnc(Nc3ccc(N4CC[C@H](O)CC4=O)cn3)nc2c(NC(C)C)n1 [Compound 267]	≥ 100	< 10	–	–
CC(C)CNc1nc([C@@H](C)O)cc2cnc(Nc3ccc(CN4CCCC(O)C4)cn3)nc12 (some centres unmarked) [Compound 1085]	–	–	≥ 100	< 10
CCNc1nc([C@@H](C)OC)cc2cnc(Nc3ccc(CN4CCNCC4)cn3)nc12 [Compound 816]	–	–	≥ 100	< 10
COC(=O)CNCCNc1ccc(Nc2ncc3cc([C@@H](C)O)nc(NC(C)C)c3n2)nc1 [Compound 717]	–	–	≥ 100	10 to 100
c1cc2c(nc1Nc1ncc3cc(C4CCOC4)nc(NC4CCCOC4)c3n1)CCNC2 (single isomer, unassigned) [Compound 943]	–	–	≥ 100	10 to 100
CC(=O)c1cc2cnc(Nc3ccc(CN4CCNCC4)cn3)nc2c(NC(C)C)n1 [Compound 329]	≥ 100	< 10	–	–
CC(C)Nc1nc([C@@H](C)O)cc2cnc(Nc3ccc(CN4CCN(C[C@@H](C)O)CC4)cn3)nc12 [Compound 675]	–	–	≥ 100	< 10
FC(F)c1cc2cnc(Nc3ccc(N4CCNCC4)cn3)nc2c(N[C@H]2CCCNC2)n1 [Compound 2]	10 to 100	< 10	–	–
C[C@@H](O)c1cc2cnc(Nc3ccc(N4CCNCC4)nn3)nc2c(N[C@@H]2CCCOC2)n1 [Compound 254]	≥ 100	< 10	–	–
CC(=O)c1cc2cnc(Nc3ccc(N4CCNCC4)cn3)nc2c(NC2CCOCC2)n1 [Compound 56]	≥ 100	< 10	–	–
CC(=O)c1nc(NC(C)C)c2nc(Nc3ccc(N4CCNCC4)cn3)ncc2c1C [Compound 68]	≥ 100	< 10	–	–
CC(C)(C)Nc1nc(C(F)F)cc2cnc(Nc3ccc(N4CCNCC4)cn3)nc12 [Compound 13]	10 to 100	< 10	–	–
C[C@@H](O)c1cc2cnc(Nc3ccc(CN4CCC[C@@H](O)C4)cn3)nc2c(N[C@H]2CC[C@H](O)CC2)n1 [Compound 1187]	–	–	≥ 100	< 10
C[C@@H](O)c1cc2cnc(Nc3ccc(N4CCNCC4)nn3)nc2c(NC2(C(=O)O)CCCC2)n1 [Compound 316]	≥ 100	≥ 100	–	–
C[C@@H](O)c1cc2cnc(Nc3ccc(CN4CCN(CCO)CC4)cn3)nc2c(NCC(F)(F)F)n1 [Compound 1170]	–	–	≥ 100	< 10
CCC(=O)c1cc2cnc(Nc3ccc(N4CCNCC4=O)cn3)nc2c(NC(C)C)n1 [Compound 1030]	–	–	≥ 100	10 to 100
CC(C)Nc1nc([C@@H](C)O)cc2cnc(Nc3ccc(N4CCC5(CCNCC5)C4=O)cn3)nc12 [Compound 784]	–	–	≥ 100	< 10
COC[C@@H](C)Nc1nc([C@@H](C)O)cc2cnc(Nc3ccc(CN4CCN(C)CC4)cn3)nc12 [Compound 1105]	–	–	≥ 100	< 10
CC(C)Nc1nc([C@@H](C)O)cc2cnc(Nc3ccc(C(=O)N4CC[C@@H](N(C)C)C4)cn3)nc12 [Compound 1163]	–	–	10 to 100	< 10
